From patent US6699901B1, “Dicarboxylato diammine platinum derivatives and compositions comprising them as anti-tumor agents” (priority 2000, dated 2004) come the findings set out here.

The subject of series [1] is nude mice. The experiment in a line: Acute toxicity dose limiting experiments (LD50). The procedure: The LD50 of the pharmaceutical composition of the invention is tested as follows, for example: […]
For series [2], the system named is human hepatic cancer cells BEL-7402. Kind of series: IC50 on human hepatic cancer cells BEL-7402. Type of series: cell-based.
A short description of series [3]: Stability in water. The conditions noted are these: after dissolved in water. In kind it is physicochemical.
Series [4] can be described thus: Effectiveness on oral administration. Type of series: in vivo.
In series [5] the test system is cells of adenocarcinoma of breast. The experiment in a line: IC50 on human breast cancer cells. Type of series: cell-based.
Series [6] can be described thus: Solubility in water. Type of series: physicochemical.
Series [7] is described as follows: Antitumor effects (test not specified).
The subject of series [8] is human hepatic cancer H22. The conditions noted are these: after two times of administration of the smallest dose based on LD50. The procedure:
The mice were divided into three groups, which were given large dose (LD50×⅕), middle dose (LD50× 1/10) and small dose (LD50× 1/20) respectively. […] Beijing's institute for drug control carried out human hepatic cancer H22 nude mice inoculation carcinostatic rate experiments. […] Every group was given 0.2 ml every time per day for seven consecutive days. The mice were put to death thirty days after inoculation.

What is called IC50 is the concentration needed to halve the response being measured. Read a high IC50 as a need for much substance. The term LD50 denotes the dose expected to kill half of the subjects tested. Read a high LD50 as lower toxicity.

`N.N.O=C([O-])C1(C(=O)[O-])CCC1.[Pt+2]` [Carboplatin, carboplatin, reference compound] yielded an LD50 abdominal administration in series [1] (administered abdominally) of 130 mg/kg. The IC50 is 8.45 µg/mL in series [2] and 9.3 µg/mL in series [5]. For the same compound, the stability in water result in series [3] is on record as “lose effectiveness in one day”. In series [4], the “effectiveness on oral administration” value is recorded as “ineffective”. In addition, the Solubility in water in series [6] was 1.5 g/100 ml.
Regarding “Double 1,1-Cyclopropane Dicarboxylic Acid Diaminoplatin Complex”, the LD50 in series [1] (injected) is listed as 180 mg/kg. Further, the “antitumor effects compared with bicycloplatin” value in series [7] is given as “superior”. Besides, the “solubility in water compared with bicycloplatin” value in series [6] is on record as “less soluble in water”.
For the compound `O=P1(N(CCCl)CCCl)NCCCO1` (stereo not shown) [cyclophosphamide, reference compound], in series [8], the inhibition rate was determined as 73.15% and the “state of the mice” value is on record as “most of the mice were near death”.
On to `N.N.[Cl][Pt][Cl]` [Cisplatin, cis-dichlorodiaminoplatin], for which the stability in water entry in series [3] is reported as “lose effectiveness in one day”. Further, in series [4], the “effectiveness on oral administration” value is “ineffective”.
